# According to patent publication US20260191769A1, “DRUG ELUTING IMPLANTS AND USES THEREOF” (MUSC FOUNDATION FOR RESEARCH DEVELOPMENT, priority 2022, published 2026):
# Read-outs that look alike come from different tables or passages of the source.
# Tested on: Methicillin-Resistant Staphylococcus aureus (MRSA)
# Experiment: microbe, parasite or virus in culture
# Protocol: At the prescribed time points, gels were removed and placed in active bacteria cultures for 24 hours. After 24 hours, the gels were removed and the bacteria zone of exclusion will be measured.
# Briefly, Methicillin-Resistant Staphylococcus aureus (MRSA) was cultured in brain-heart infusion broth and diluted to match a 0.5 McFarland turbidity standard. The resulting culture was tested with gram stain to ensure the MRSA was present. After determining that the MRSA was indeed gram-positive and present, the MRSA was carefully spread onto 150 mm agar plates to inoculate the plates. 5 mcg and 30 mcg vancomycin loaded disks were placed on each agar plate as antibiotic controls. Six plates were run in this experiment, with three plates containing aliquots (from the eluates collected from the study of Example 1 Aim 1) with peroxide (FIG. 7A), while the other three plates contained aliquots run with collagenase & phosphate buffered saline (FIG. 7B).
# Aliquots from days 3, 7, 14, 21, and 28 were run. 10 μL of each aliquot was pipetted onto filter paper and placed onto the agar plates. The agar plates were incubated for 24 hours at 37 degrees Celsius, and the zones of inhibition were measured the following morning.
smiles,measurement,setting,value
"CN[C@H](CC(C)C)C(=O)N[C@H]1C(=O)N[C@@H](CC(N)=O)C(=O)N[C@H]2C(=O)N[C@H]3C(=O)N[C@H](C(=O)N[C@H](C(=O)O)c4cc(O)cc(O)c4-c4cc3ccc4O)[C@H](O)c3ccc(c(Cl)c3)Oc3cc2cc(c3O[C@@H]2O[C@H](CO)[C@@H](O)[C@H](O)[C@H]2O[C@H]2C[C@](C)(N)[C@H](O)[C@H](C)O2)Oc2ccc(cc2Cl)[C@H]1O [Vanc., vancomycin]",zone of inhibition at 5 µg/disc,"read-out: 5 mcg Vanc. zone of inhibition, average, 5 mcg vancomycin control disk, average of plates 1-3 (collagenase & phosphate buffered saline)",1.33 mm
same,zone of inhibition at 5 µg/disc,"read-out: 5 mcg Vanc. zone of inhibition, average, 5 mcg vancomycin control disk, average of plates 4-6 (peroxide)",1.33 mm
same,zone of inhibition at 30 µg/disc,"read-out: 30 mcg Vanc. zone of inhibition, average, 30 mcg vancomycin control disk, average of plates 1-3 (collagenase & phosphate buffered saline)",4.67 mm
same,zone of inhibition at 30 µg/disc,"read-out: 30 mcg Vanc. zone of inhibition, average, 30 mcg vancomycin control disk, average of plates 4-6 (peroxide)",4.33 mm
